Like-named read-outs stand apart in the source and are kept apart here.
How the values were obtained:
[1] = tested on: E. coli (DSM 1576), Ps. Aeruginosa (DSM 1128), C. albicans (DSM 1386), St. aureus (DSM 799), As. Niger (DSM 1988); conditions: base cream without capsules, pH 4.5, 4 weeks, concentrations as low as 0.1%
Procedure: This was proven by conducting a challenge test on the cream (without the probiotic capsules) with the different preservative concentrations, according to the European Pharmacopeia (5.1.3).
Challenge tests are used to determine the efficacy of the antimicrobial conservation system for dermatological products. […] Sorbic acid was tested in concentrations : 0.5%-0.3%-0.1%-0% (Control).
The challenged organisms were E. coli (DSM 1576), Ps. Aeruginosa (DSM 1128), C. albicans (DSM 1386), St. aureus (DSM 799), As. Niger (DSM 1988).
Addition of the challenged organisms (in 100 gram product) happens at 10^6 CFU/ML. Sampling happens after 6 hours, 24 hours, 7-14 & 28 days. A challenge test is successful if at least a 3 log reduction is visible after 7 days for the bacteria and a 2 log reduction for the yeasts/molds after 14 days—3 log after 4 weeks. Results shown are after 4 weeks of sampling.

[2] = at 25° C.; cited from earlier work
probiotic capsules = conditions: for % survival: 3 months cold storage, relative to Blanc; for CFU/g: capsules 15% in basic cream pH 4.5, 3 months cold storage
Procedure: A basic cream without preservatives/perfume was used as basis for further tests. The preservative tested was Sorbic acid (2,4 hexadienoic acid), an organic acid with pKa 4.76 at 25° C. at different concentrations. The pH of the cream for all the tested conditions was adjusted to 4.5 using HCl/NaOH.
The probiotic capsules are suspended 15% (m/) in the cream base with the different preservative concentrations. To simulate release of the probiotics in vivo, the use of a Citric acid buffer was used in vitro. The citric acid will dissolve the membrane of the capsule and hereby release the probiotics inside the capsule. CA buffer was made by dissolving 31.2 g Na2HPo4 & 1.25 g Citric acid in 971.54 g Sterile water. The Final solution is isotonic with a pH of 7.4±0.2.
The sample creams are sampled in duplo after which it is dissolved in CA-buffer. A further 1/10 dilution series is made and 0.1 ml is spread on MRS agar plates using the ‘copacabana spread plating method’ with 5 glass beads diameter 4 mm. Plating happens in duplo and results (after 3 days incubation 37° C.) are calculated as CFU/ gram cream. Storage happens at 4° C. & 25° C. Sampling happens after 1-2-3 months.

For `CC=CC=CC(=O)O` [Sorbic acid, 2,4 hexadienoic acid], the “preservative effect in challenge test” value [1] is listed as “good preservative effect”, the pKa [2] is listed as 4.76 and the “% survival” value (probiotic capsules; sorbic acid 0.03 %) is listed as 68%. The CFU/g (probiotic capsules; sorbic acid 0.03 %) was 6.E+07 CFU/g, the “% survival” value (probiotic capsules; sorbic acid 0.1 %) was 79% and the CFU/g (probiotic capsules; sorbic acid 0.1 %) was 7.E+07 CFU/g. For the same compound, the “% survival” value (probiotic capsules; sorbic acid 0.3 %) was 76% and the CFU/g (probiotic capsules; sorbic acid 0.3 %) was 7.E+07 CFU/g.

— patent US20190321302A1, “PRESERVATION OF MICROORGANISMS” (Yun NV, priority 2016, published 2019)
